US5314896A, “1,3-substituted cycloalkenes and cycloalkanes as central nervous system agents” (priority 1992, dated 1994)
pIC50: −log10 of the molar value. Where two headings read alike, the source gives them in different places.

What was measured:
[1] = biological target: dopamine receptors; assay: Inhibition of [^3 H] spiroperidol binding
Protocol: (§1) The compounds of Formula I are valuable dopaminergic agents. […] Thus, the compounds of Formula I were tested for their ability to inhibit locomotor activity in mice and rats, a measure of antipsychotic activity, according to the assay described by J. R. McLean, et al, Pharmacology, Biochemistry and Behavior, Vol. 8, pages 97-99 (1978); for their ability to bind to dopamine receptors as measured by their inhibition of [^3 H]spiroperidol binding in a receptor assay described by D. Grigoriadis and P. Seeman, Journal of Neurochemistry, Vol. 44, pages 1925-1935 (1985); and for their ability to effect dopamine synthesis in rats according to the protocol described by J. R. Walters and R. H. Roth, Naunyn-Schmiedebero's Archives of Pharmacology, Vol. 296, pages 5-14 (1976). The above test methods are incorporated herein by reference. The data in the table show the dopaminergic activity of representative compounds of Formula I.

[2] = test system: Locomotor Activity in Mice; assay: Inhibition of locomotor activity in mice; type: in vivo; details: for ED50: Mus musculus
Protocol: as §1

[3] = test system: Brain Dopamine Synthesis; assay: % effects on brain dopamine synthesis in rats; type: in vivo; details: Rattus norvegicus
Protocol: as §1

[4] = ip, read-out: Inhibition of Locomotor Activity in Mice ED50, mice, IP (Table 2)
[5] = ip, read-out: % Effects on Brain Dopamine Synthesis in Rats, rats, 10 mg/kg, IP (Table 1)
[6] = ip, read-out: Inhibition of Locomotor Activity in Mice ED50, mice, IP (Table 1)
[7] = mice, IP (Table 1), read-out: Inhibition of Locomotor Activity in Mice ED50

Compound | pIC50 ([1]; Table 1) | ED50 [2, 6] [mg/kg] | further results
C1=C(c2ccccc2)CCC(N2CC=C(c3ccccc3)CC2)C1 (racemic) [A, (±)-1,2,3,6-tetrahydro-4-phenyl-1-(4-phenyl-3-cyclohexen-1-yl)pyridine, reference compound] | – | – | pIC50 ([1]; Table 2): 5.97; ED50 [2, 4]: 12.9 mg/kg
C1=C(c2ccccc2)CCC(CN2CC=C(c3ccccc3)CC2)C1 (racemic) [B, (±)-1,2,3,6-tetrahydro-4-phenyl-1-[(4-phenyl-3-cyclohexen-1-yl)methyl]pyridine, reference compound] | – | – | pIC50 ([1]; Table 2): 6.00; ED50 [2, 4]: 13.2 mg/kg
C1=C(c2ccccc2)CCC(CCN2CC=C(c3ccccc3)CC2)C1 (racemic) [Compound C, (±)-1,2,3,6-tetrahydro-4-phenyl-1-[2-(4-phenyl-3-cyclohexen-1-yl)ethyl]pyridine, reference compound] | – | – | pIC50 ([1]; Table 2): 5.10; ED50 [2, 4]: 5.8 mg/kg
C1=C(c2ccccc2)CCN(CCC2CCC=C(c3ccccc3)C2)C1 (racemic) [Compound E, (±)-1,2,3,6-tetrahydro-4-phenyl-1-[2-(3-phenyl-3-cyclohexen-1-yl)ethyl]pyridine, reference compound] | – | – | ED50 [2, 4]: 10.9 mg/kg
C1=C(c2ccccc2)CCC(CN2CCN(c3ccccn3)CC2)C1 (racemic) [Compound G, (±)-1-[(4-phenyl-3-cyclohexen-1-yl)methyl]-4-(2-pyridinyl)piperazine, reference compound] | – | – | pIC50 ([1]; Table 2): 4.95; ED50 ([2]; mice, IP (Table 2), read-out: Inhibition of Locomotor Activity in Mice ED50): 25.9 mg/kg
C1=C(c2ccccc2)CCN(C2CCC=C(c3ccccc3)C2)C1 (racemic) [D, (±)-1,2,3,6-tetrahydro-4-phenyl-1-(3-phenyl)-3-cyclohexen-1-yl)pyridine, reference compound] | – | – | pIC50 ([1]; Table 2): 5.04; ED50 [2, 4]: 30 mg/kg
C1=C(c2ccccc2)CCCC1CN1CC=C(c2ccccc2)CC1 (racemic) [Example 1a, (±)-1,2,3,6-Tetrahydro-4-phenyl-1-[(3-phenyl-2-cyclohexen-1-yl)methyl]pyridine] | 6.38 | 2.5 | change in vivo at 10 mg/kg [3, 5]: -34%
C1=C(c2ccccc2)CCN(CC2CCC=C(c3cccs3)C2)C1 (racemic) [Example 2, (±)-1,2,3,6-Tetrahydro-4-phenyl-1-[[3-(2-thienyl)-3-cyclohexen-1-yl]methyl]pyridine] | 6.69 | 1.8 | change in vivo at 10 mg/kg [3, 5]: -9%
C1=C(c2ccccc2)CCN(CC2C=C(c3cccs3)CCC2)C1 (racemic) [Example 2a, (±)-1,2,3,6-Tetrahydro-4-phenyl-1-[[3-(2-thienyl)-2-cyclohexen-1-yl]methyl]pyridine] | 6.40 | 2.3 | –
Fc1ccc(C2=CCCC(CN3CC=C(c4ccccc4)CC3)C2)cc1 (racemic) [Example 3, (±)-1-[[3-(4-Fluorophenyl)-3-cyclohexen-1-yl]methyl]-1,2,3,6-tetrahydro-4-phenylpyridine] | 7.05 | 4.2 | –
Fc1ccc(C2=CC(CN3CC=C(c4ccccc4)CC3)CCC2)cc1 (racemic) [Example 3a, (±)-1-[[3-(4-Fluorophenyl)-2-cyclohexen-1-yl]methyl]-1,2,3,6-tetrahydro-4-phenylpyridine] | 5.97 | 2.9 | change in vivo at 10 mg/kg [3, 5]: -41%
Fc1ccc(C2=CCCC(CN3CCN(c4ccccn4)CC3)C2)cc1 (racemic) [Example 5, (±)-1-[[3-(4-Fluorophenyl)-3-cyclohexen-1-yl]methyl]-4-(2-pyridinyl)piperazine] | 6.84 | 1.2 | change in vivo at 10 mg/kg ([3]; rats, 10 mg/kg, IP (Table 1), read-out: % Effects on Brain Dopamine Synthesis in Rats): -58%
C1=C(c2ccccc2)CC(CN2CCN(c3ccccc3)CC2)CC1.Cl.Cl (racemic) [Example 22, (±)-1-phenyl-4-[(3-phenyl-3-cyclohexen-1-yl)methyl]-piperazine dihydrochloride] | 6.37 | – | ED50 [2, 7]: 2.1 mg/kg
C1=C(c2ccccc2)CC(CN2CCN(c3ncccn3)CC2)CC1 (racemic) [Example 23, (±)-2-[4-[[3-phenyl-3-cyclohexen-1-yl)methyl]-1-piperazinyl]pyrimidine] | 6.45 | – | ED50 [2, 7]: 8.5 mg/kg
C1=C(c2ccccc2)CC(CN2CC=C(c3cccs3)CC2)CC1.Cl (racemic) [Example 24, (±)-1,2,3,6-tetrahydro-1-[(3-phenyl-3-cyclohexen-1-yl)methyl]-4-(2-thienyl)pyridine monohydrochloride] | 6.77 | 1.5 | –
Cl.Clc1ccc(C2=CCC[C@@H](CN3CC=C(c4ccccc4)CC3)C2)cc1 [Example 7, (R)-1-[[3-(4-chlorophenyl)-3-cyclohexen-1-yl]methyl]-1,2,3,6-tetrahydro-4-phenylpyridine monohydrochloride] | – | 4.4 | change in vivo at 10 mg/kg [3, 5]: -18%
Clc1ccc(C2=C[C@H](CN3CC=C(c4ccccc4)CC3)CCC2)cc1 [Example 7a, (R)-1-[[3-(4-chlorophenyl)-2-cyclohexen-1-yl]methyl]-1,2,3,6-tetrahydro-4-phenylpyridine] | 5.63 | 7.5 | –
C1=C(c2ccccc2)CCN(C[C@@H]2CCC=C(c3cncnc3)C2)C1.Cl [Example 14, (R)-5-[5-[(3,6-dihydro-4-phenyl-1(2H)-pyridinyl)methyl]-1-cyclohexen-1-yl]pyrimidine monohydrochloride] | 6.36 | 0.4 | –
C1=C(c2cncnc2)CCC[C@H]1CN1CC=C(c2ccccc2)CC1.Cl.Cl [Example 14a, (R)-5-[3-[(3,6-dihydro-4-phenyl-1(2H)-pyridinyl)methyl]-1-cyclohexen-1-yl]pyrimidine dihydrochloride] | – | 0.07 | –
C1=C(c2ccsc2)CCC[C@H]1CN1CC=C(c2ccccc2)CC1 [Example 15, (R)-1,2,3,6-tetrahydro-4-phenyl-1-[[3-(3-thienyl)-2-cyclohexen-1-yl]methyl]pyridine] | 6.60 | 1.3 | –
CN(C)c1ccc(C2=C[C@H](CN3CC=C(c4ccccc4)CC3)CCC2)cc1 [Example 16a, (R)-4-[3-[(3,6-dihydro-4-phenyl-1(2H)-pyridinyl)methyl]-1-cyclohexen-1-yl]-N,N-dimethylbenzeneamine] | 6.18 | 0.7 | –
C1=C(c2cnc3ccccc3c2)CCC[C@H]1CN1CC=C(c2ccccc2)CC1 [Example 17a, (R)-3-[3-[(3,6-dihydro-4-phenyl-1(2H)-pyridinyl)methyl]-1-cyclohexen-1-yl]quinoline] | 5.96 | 1.7 | –
C1=C(c2ccccc2)CCN(C[C@@H]2CCC=C(c3ccc4c(c3)OCO4)C2)C1.Cl [Example 18, (R)-1-[[3-(1,3-benzodioxol-5-yl)-3-cyclohexen-1-yl]methyl]-1,2,3,6-tetrahydro-4-phenylpyridine monohydrochloride] | 6.36 | 0.8 | –
C1=C(c2ccccc2)CCN(C[C@@H]2CCC[C@@H](c3ccccc3)C2)C1.Cl [Example 20a, (1R-trans) 1,2,3,6-tetrahydro-4-phenyl-1-[(3-phenylcyclohexyl)methyl]pyridine monohydrochloride] | 6.06 | 0.5 | –
(R)-1,2,3,6-tetrahydro-1-[[3-(2-methylphenyl)-2-cyclohexen-1-yl]methyl]-4-phenylpyridine monohydrochloride compound with (R)-1,2,3,6-tetrahydro-1-[[3-(2-methylphenyl)-3-cyclohexen-1-yl]methyl]-4-phenylpyridine [Example 13] | – | – | Inhibition of Locomotor Activity in Mice ED50 ([2]; mice, IP (Table 1)): 2.3 mg/kg
